Experimental data taken from the CheMixHub viscosity set.
Several values for one entry are separate records, joined by “and”; a condition that tells them apart may be missing. Identical values can stand only once.

Test: xn = mol fraction of the nth substance listed

CCCCCCCCCCCCCCCC + CC(C)CC(C)(C)C
298.15 K
Details	viscosity [mPa·s]
101 kPa, x2 = 0.05562	2.82
101 kPa, x2 = 0.1311	2.55
101 kPa, x2 = 0.1971	2.371
101 kPa, x2 = 0.307	1.95
101 kPa, x2 = 0.4264	1.651
101 kPa, x2 = 0.5472	1.337
101 kPa, x2 = 0.6552	1.077
101 kPa, x2 = 0.7341	0.9214
101 kPa, x2 = 0.8043	0.7819
101 kPa, x2 = 0.8275	0.7495
101 kPa, x2 = 0.8768	0.6682
101 kPa, x2 = 0.929	0.5871
101 kPa, x2 = 0.9511	0.5441
101.33 kPa, x1 = 0.101	0.6392
101.33 kPa, x1 = 0.199	0.8143
101.33 kPa, x1 = 0.2987	1.014
101.33 kPa, x1 = 0.4006	1.24
101.33 kPa, x1 = 0.4999	1.489
101.33 kPa, x1 = 0.6004	1.765
101.33 kPa, x1 = 0.7002	2.062
101.33 kPa, x1 = 0.8003	2.391
101.33 kPa, x1 = 0.9001	2.72

O=CC(Cl)(Cl)Cl + CC(C)CCO
313.15 K, 101 kPa
Details	viscosity [mPa·s]
x1 = 0.0715	2.825
x1 = 0.2226	4.098
x1 = 0.2851	4.684
x1 = 0.3509	5.476
x1 = 0.4001	6.07
x1 = 0.4335	6.48
x1 = 0.4573	6.923
x1 = 0.4722	6.922
x1 = 0.4823	6.831
x1 = 0.4926	6.751
x1 = 0.5251	6.026
x1 = 0.5576	5.406
x1 = 0.6165	3.935
x1 = 0.7376	2.151
x1 = 0.8868	1.283

ClC(Cl)Cl + CC(C)OC(C)C
298.15 K, 101 kPa
Details	viscosity
x1 = 0.07	0.325 mPa·s
x1 = 0.12	0.35 mPa·s
x1 = 0.13	0.353 mPa·s
x1 = 0.16	0.369 mPa·s
x1 = 0.21	0.39 mPa·s
x1 = 0.26	0.413 mPa·s
x1 = 0.31	0.437 mPa·s
x1 = 0.35	0.458 mPa·s
x1 = 0.4	0.484 mPa·s
x1 = 0.46	0.507 mPa·s
x1 = 0.5	0.523 mPa·s
x1 = 0.55	0.543 mPa·s
x1 = 0.6	0.553 mPa·s
x1 = 0.65	0.565 mPa·s
x1 = 0.71	0.572 mPa·s
x1 = 0.76	0.577 mPa·s
x1 = 0.8	0.579 mPa·s
x1 = 0.85	0.581 mPa·s
x1 = 0.9	0.58 mPa·s
x1 = 0.95	0.579 mPa·s and 0.58 mPa·s

FC(F)Cl + CC(F)F
viscosity [mPa·s], 101 kPa
Details	293.35 K	293.45 K	312.95 K	313.25 K
x1 = 0.159	–	0.178	0.1422	–
x1 = 0.34	–	0.1749	–	0.1424
x1 = 0.534	0.1805	–	–	0.1485

O=CC(Cl)(Cl)Cl + CCC(C)=O
viscosity [mPa·s], 101 kPa
Details	x1 = 0.1183	x1 = 0.2018	x1 = 0.3006	x1 = 0.3959	x1 = 0.5007	x1 = 0.5979	x1 = 0.6814	x1 = 0.7599	x1 = 0.847
298.15 K	0.5125	0.5629	0.6247	0.6758	0.7457	0.8097	0.8541	0.8952	0.9503
323.15 K	0.3989	0.4323	0.4784	0.5132	0.5619	0.6053	0.6241	0.6588	0.7035

O=CC(Cl)(Cl)Cl + CCCC(C)=O
viscosity [mPa·s], 101 kPa
Details	x1 = 0.1199	x1 = 0.2489	x1 = 0.3714	x1 = 0.5058	x1 = 0.6071	x1 = 0.7288	x1 = 0.8116	x1 = 0.9001
298.15 K	0.524	0.595	0.6722	0.7399	0.8153	0.8727	0.9343	0.9935
323.15 K	0.4084	0.458	0.5112	0.5571	0.6	0.6402	0.6822	0.7258
